From patent US9827229B2, “Small molecule securinine and norsecurinine analogs and their use in cancers, inflammatory diseases and infections” (INVENIO THERAPEUTICS INC., priority 2013, dated 2017)

These compounds were tested on HL60 cells (assay: Differentiation of HL60 cells (Dif50)). Conditions: HL-60 cells, at 1.25 uM.
Assay type: cell-based, human
From the text: The tested compounds and their respective results are produced in Table 1. Those skilled in the art will appreciate that combining the securinine and/or norsecurinine analogs with other differentiation inducing agents, such as all-trans retinoic acid, cytarabine and/or an anthracycline, would be of further benefit. Those skilled in the art will appreciate that inducing differentiation may further reduce oxidative damage due to lower presence of radical inducing enzymes (see, e.g., Yamada et al. J Biol Chem 259(5)3021-3025 (1984) and Weil et al., PNAS 84:2057-2061 (1987)).
(§1) The analogs were then tested and evaluated on the ability to affect differentiation and growth of HL60 cells.
For `O=C1C=C2C(C#CC3C=CCCC3)=C[C@@H]3C[C@@]2(O1)[C@H]1CCCCN31` (stereo partly drawn) [INVS-MG-160B], the “HL-60, Dif50/IC50 column: first value of 'x/y at 1.25 uM' (differentiation)” value was 50.

Same assay, conditions: HL-60 cells, at 10 uM
For `C=CCOCC#CC1=C[C@@H]2C[C@@]3(OC(=O)C=C13)[C@H]1CCCCN21` [INVS-MG-159A], the “HL-60, Dif50/IC50 column: first value of 'x/y at 10 uM' (differentiation)” value was 20/20 at 10 uM. `N#CCCCC#C/C(=C\C1=C[C@@H]2C[C@@]3(OC(=O)C=C13)[C@H]1CCCCN21)CCCC#N` [INVS-MG-125-IIB] was tested, and the “HL-60, Dif50/IC50 column: first value of 'x/y at 10 uM' (differentiation)” value was 40.

Same assay, conditions: Homo sapiens, HL-60, HL-60 cells, differentiation; no unit in head or cell (other cells of the column print uM); read-out: HL-60, Dif50
For `CCCNC1CC2=CC(=O)O[C@@]23C[C@@H]1N1CCCC[C@@H]13` (stereo partly drawn) [INVS-MG-44], the EC50 was 15 to 20 µM. `O=C1C=C2[C@@H]3C=CC[C@@]2(O1)[C@H]1CCCCN1O3` [INVS-MG-74A] showed an EC50 of over 30 µM. For `CSC1CC2=CC(O)O[C@@]23C[C@@H]1N1CCCC[C@@H]13` (stereo partly drawn) [Sec-8], the EC50 was 10 to 15 µM. For `NC1CC2=CC(=O)O[C@@]23C[C@@H]1N1CCCC[C@@H]13` (stereo partly drawn) [INVS-MG-97-IIE], the EC50 was 20 to 30 µM. Work on `O=C1C=C2C[C@@H](SCC(F)(F)F)[C@@H]3C[C@@]2(O1)[C@H]1CCCCN31` [INVS-MG-5C] yielded an EC50 of 20 to 30 µM. `O=C1C=C2CC(S(=O)(=O)c3ccccc3)[C@@H]3C[C@@]2(O1)[C@H]1CCCCN31` (stereo partly drawn) [INVS-MG-184B] was tested, and the EC50 was 5 to 7.5 µM. Compound `Oc1ccccc1CSC1CC2=CC(O)O[C@@]23C[C@@H]1N1CCCC[C@@H]13` (stereo partly drawn) [Sec-4] has an EC50 of 15 to 20 µM. In the case of `CC(C)CS[C@H]1CC2=CC(=O)O[C@@]23C[C@@H]1N1CCCC[C@@H]13` (stereo in doubt) [INVS-MG-55B & 57B = 37B], the EC50 is reported as 15 to 20 µM. With `COc1ccc(CN[C@@H]2CC3=CC(=O)O[C@@]34C[C@@H]2N2CCCC[C@@H]24)cc1` [INVS-MG-86C] the EC50 was over 30 µM. Compound `OC1CC2CC[C@@H]3C[C@@]2(O1)[C@H]1CCCCN31` (stereo partly drawn) [Sec-16] has an EC50 of 20 to 30 µM. `O=C1C=C2CC(N3CCN(c4ccc(Br)cc4)CC3)[C@@H]3C[C@@]2(O1)[C@H]1CCCCN31` (stereo partly drawn) [Sec-11] was tested, and the EC50 was 15 to 20 µM. With `O=C1C=C2C[C@H](SCC(F)(F)F)[C@@H]3C[C@@]2(O1)[C@H]1CCCCN31` [INVS-MG-5B] the EC50 was over 30 µM. Work on `O=C1C=C2CC(S(=O)Oc3ccccc3)[C@@H]3C[C@@]2(O1)[C@H]1CCCCN31` (stereo partly drawn) [Sec-19] yielded an EC50 of 20 to 30 µM. Work on `O=C1C=C2CC([S+]([O-])c3ccccc3)[C@@H]3C[C@@]2(O1)[C@H]1CCCCN31` (stereo partly drawn) [Sec-21] yielded an EC50 of 20 to 30 µM. In the case of `O=C1C=C2C[C@H](NCCc3cc4ccccc4[nH]3)[C@@H]3C[C@@]2(O1)[C@H]1CCCCN31` [INVS-MG-98B], the EC50 is reported as 10 to 15 µM. In the case of `CCN(CC)CCSC1CC2=CC(=O)O[C@@]23C[C@@H]1N1CCCC[C@@H]13` (stereo partly drawn) [INVS-MG-60], the EC50 is reported as 15 to 20 µM. In the case of `O=C1C=C2C(c3ccccc3)=C[C@@H]3C[C@@]2(O1)[C@H]1CCCCN31` [INVG-28-1 = INVS-MG-56B], the EC50 is reported as over 30 µM. `COc1ccc(SC2CC3=CC(O)O[C@@]34C[C@@H]2N2CCCC[C@@H]24)cc1` (stereo partly drawn) [Sec-9] showed an EC50 of 20 to 30 µM. In the case of `O=C1C=C2CC(SC3CCCCC3)[C@@H]3C[C@@]2(O1)[C@H]1CCCCN31` (stereo partly drawn) [INVS-MG-3B], the EC50 is reported as 15 to 20 µM. `OC1C=C2CC(SCc3ccccc3)[C@@H]3C[C@@]2(O1)[C@H]1CCCCN31` (stereo partly drawn) [Sec-2] showed an EC50 of over 30 µM. Compound `CC(C)CS[C@@H]1CC2=CC(=O)O[C@@]23C[C@@H]1N1CCCC[C@@H]13` (stereo in doubt) [INVS-MG-57A] has an EC50 of 20 to 30 µM. `CC1CC2=CC(=O)O[C@@]23C[C@@H]1N1CCCC[C@@H]13` (stereo partly drawn) [Sec-18 & Sec-20] gave an EC50 of 20 to 30 µM. `C#CC1=C[C@@H]2C[C@@]3(OC(=O)C=C13)[C@H]1CCCCN21` [INVS-MG-207-II] showed an EC50 of over 0.07 µM. In the case of `O=C1C=C2CC(SCCSC3CC4=CC(=O)O[C@]45C[C@H]3N3CCCC[C@H]35)[C@@H]3C[C@@]2(O1)[C@H]1CCCCN31` (stereo partly drawn) [INVS-MG-7C], the EC50 is reported as 10 to 15 µM. For `OC1C=C2CC(SC3CCCC3)[C@@H]3C[C@@]2(O1)[C@H]1CCCCN31` (stereo partly drawn) [Sec-6], the EC50 was 15 to 20 µM.

Same assay, conditions: Homo sapiens, HL-60, HL-60 cells, differentiation; read-out: HL-60, Dif50
With `O=C1C=C2C(c3cn(Cc4ccccc4)nn3)=C[C@@H]3C[C@@]2(O1)[C@H]1CCCCN31` [INVS-MG-209A] the EC50 was under 10 µM.

These compounds were tested on HL60 cells (assay: Growth of HL60 cells (IC50)). Conditions: HL-60 cells, at 1.25 uM.
Assay type: cell-based, human
Design: HL-60, Dif50/IC50 column: second value of 'x/y at 1.25 uM' (growth): unit not given here
Method: as §1
`O=C1C=C2C(C#CC3C=CCCC3)=C[C@@H]3C[C@@]2(O1)[C@H]1CCCCN31` (stereo partly drawn) [INVS-MG-160B] was tested, and the “HL-60, Dif50/IC50 column: second value of 'x/y at 1.25 uM' (growth)” value was 40.

Same assay, conditions: HL-60 cells, at 10 uM
In the case of `C=CCOCC#CC1=C[C@@H]2C[C@@]3(OC(=O)C=C13)[C@H]1CCCCN21` [INVS-MG-159A], the “HL-60, Dif50/IC50 column: second value of 'x/y at 10 uM' (growth)” value is reported as 20/20 at 10 uM. `N#CCCCC#C/C(=C\C1=C[C@@H]2C[C@@]3(OC(=O)C=C13)[C@H]1CCCCN21)CCCC#N` [INVS-MG-125-IIB] was tested, and the “HL-60, Dif50/IC50 column: second value of 'x/y at 10 uM' (growth)” value was 35.

Same assay, conditions: Homo sapiens, HL-60, HL-60 cells, growth; read-out: HL-60, IC50
`O=C1C=C2C(c3cn(Cc4ccccc4)nn3)=C[C@@H]3C[C@@]2(O1)[C@H]1CCCCN31` [INVS-MG-209A] showed an IC50 of under 10 µM.
